Source: patent US10265403B2, “Cyclic peptide” (priority 2013, dated 2019)
Where no end group is shown, it is not given here.

Columns and labels:
Human dermal fibroblasts [1] = experiment: Cell adhesion, proliferation and viability on coated substrates (PrestoBlue, Vybrant MTT, CyQUANT); assay type: cell-based; settings: serum-free media, days 1, 4 and 8, 50 μL peptide 100 μM or protein 500 μg/mL
Protocol: Human dermal fibroblasts (Invitrogen, UK) were maintained in Medium 106 supplemented with low serum growth supplement (2% v/v) and antibiotics (10 μg/mL gentamicin; 0.25 μg/mL amphotericin B) in […] culture flasks. The cells were incubated at 37° C., 5% CO2 and 95% air humidity. At 70-80% confluency cells were washed with PBS to remove the unattached cells and then adhered cells were trypsinised (trypsin/EDTA 0.025:0.01%) followed by trypsin neutraliser (all from Invitrogen, UK). The harvested cells (of passages 3 to 5) were seeded for subsequent cellular analysis.
Cells were seeded at a density of 4×10^3 in serum-free media for cell viability and proliferation assays on substrates (sterile 96 well plates) coated with 50 μL of peptide (100 μM) or protein (500 μg/mL). For cytoskeletal visualisation Nunc LabTek chambered cover glass slides were used as substrates.
Cell proliferation rates and viability were determined by PrestoBlue®, Vybrant® MTT and CyQUANT® assays on day 1, 4 and 8 (all from Life Technologies, UK).
PrestoBlue® reagent is supplied as a 10× solution and added to each well by diluting (1×) in the serum-free culture medium. The cells were incubated for 30 minutes at 37° C. in 200 μL of the reagent. The fluorescence of each well was measured with a microplate reader (BMG Labtech, Germany), with 544 nm excitation and 590 nm emission filters. Standard calibration curves were generated by plotting measured fluorescence values versus cell numbers. […]
Vybrant® MTT assay: For the colourimetric 3-(4, 5-dimethylthiazole-2-yl)-2, 5-diphenyl tetrazolium bromide (MTT) cell proliferation assay, the cell medium was removed from each well at the set time points and washed with PBS followed by the addition of MTT solution (10 μL, 5 mg/mL in PBS) and serum-free fresh media (100 μL). […] The absorbance intensity was measured by a microplate reader at 540 nm with a reference wavelength at 640 nm. Standard calibration curves were generated by plotting measured absorbance values versus cell numbers. […]

E. coli = experiment: Bacterial adhesion / biofilm formation on coated substrates (Live/Dead stain, PrestoBlue); assay type: cell-based; settings: 16-hour incubations; E. coli and B. subtilis (FIGS. 12b, 13b, 13c, 14)
Protocol: Bacterial inocula (E. coli and B. subtilis) were prepared in Mueller Hinton broth at A600 of 0.6, then diluted to 1:100 in the pre-warmed medium, and 50 μL of this dilution was added to each well of the coated Nunc LabTek chambered cover glass slides. Formed biofilms were analysed after 16-hour incubations using a Live/Dead BacLight bacterial viability stain kit (Molecular Probes, UK), and were visualised by a confocal laser scanning microscope (CLSM) (FV-1000, Olympus). Bacterial viability was quantitatively probed by using PrestoBlue® reagent, as used for the cell viability and proliferation assay. E. coli was seeded at the same density as above in sterile bare and coated 96-well plates. After 16 hours incubation at 37° C. (or 30° C. for B. subtilis), the biofilm formed on each substrate was carefully washed with 10 mM Tris-HCl buffer, pH 7, to remove bacteria remaining in suspension. Two hundred microliters of PrestoBlue® reagent diluted in Mueller Hinton broth were added to each well and incubated for 30 minutes at 37° C. The fluorescence of each well was measured using a microplate reader with 544 nm excitation and 590 nm emission filters.
FIG. 13b and FIG. 13c are fluorescence micrographs and total viable cell counts respectively determined by PrestoBlue® of E. coli after 16-hour incubations on different substrates. […]

Human dermal fibroblasts [2] = experiment: Impedance measurements (xCELLigence) of cells on coated electrodes; assay type: cell-based; settings: serum-depleted medium
Protocol: Comparative impedance measurements using cell-electrode interfaces, which allow evaluating changes in effective impedance (resistance) to applied alternating current, provided further support for different cell proliferation patterns that were measured continuously in real time. Typically, cell attachments to electrode surfaces give impedance increases, whereas changes in cell morphology (cell rounding-up and detachment) cause impedance drops. Resistance traces that can correspond to different events including changes in cellular morphology, patterning and growth rates were recorded as a function of time, with cells seeded in a serum-depleted medium to avoid interferences by serum, which can modulate same signaling pathways for cell adhesion.
Impedance measurements were performed using an xCELLigence system according to the manufacturer's protocols (Roche, UK; ACEA Biosciences, USA). Each electrode array comprises 16 wells, each of which was first coated with assembled SaNet and protein solutions and background measurements were carried out prior to cell seeding. […] The electrical impedance of each well was automatically recorded every 5 min for the first 24 hours and then every 30 min till the end, and were normalised and expressed using the proprietary software as normalised cell index. Bacterial adhesions were measured every 5 min for over 15 hours. […]

[3] = test system: P. aeroginosa (ATCC 27853); assay type: cell-based, P. aeruginosa; settings: ATCC 27853, 24 h
Protocol: (§1) Minimum inhibitory concentrations (MIC) were determined by broth microdilution on P. aeruginosa ATCC 27853, E. coli K12, S. aureus ATCC 25723, M. luteus NCIMB 13267 and B. subtilis ATCC 6633 according to the Clinical and Laboratory Standards Institute. Typically, 100 μl of 0.5-1×10^6 CFU per ml of each bacterium in Mueller Hinton broth was incubated in 96 well plates with […] of serial two-fold dilutions of the peptides (final concentrations, 100-0 mM) at 37° C. (or 30° C. for B. subtilis and M. luteus) on a 3D orbital shaker. The absorbance was measured after peptide addition at 600 nm using a Victor 2 plate reader (Perkin Elmer). Minimum inhibitory concentrations (MICs) were defined as the lowest peptide concentration showing growth inhibition after 24 hours at 37° C. All tests were done in triplicate.

[4] = Haemolysis of human erythrocytes; assay type: cell-based; settings: 10% (v/v) suspension, pH 7.2; 50% lysis of human erythrocytes, 1 hour, room temperature; read-out: LC50
Protocol: (§2) Haemolysis was determined by incubating 10% (v/v) suspension of human erythrocytes with peptides. Erythrocytes were rinsed 4 times in 10 mM PBS, pH 7.2, by repeated centrifugation and re-suspension (3 min, 3000×g). Erythrocytes were incubated at room temperature for 1 hour in either deionised water (fully haemolysed control), PBS or with peptide in PBS. After centrifugation at 10 000 g for 5 min, the supernatant was separated from the pellet and the absorbance measured at 550 nm. Absorbance of the suspension treated with deionised water defined complete haemolysis. The values given in Table 2 correspond to concentrations needed to kill a half of the sample population (50% lysis of human erythrocytes) and are expressed as median lethal concentrations—LC50. All tests were done in triplicate.

Human erythrocytes = experiment: Haemolysis of human erythrocytes; assay type: cell-based; settings: in words
Protocol: as §2

M. luteus = assay type: cell-based; settings: 24 h
Protocol: as §1

B. subtilis (ATCC 6633) = assay type: cell-based; settings: ATCC 6633, 24 h
Protocol: as §1

E. coli (K12) = assay type: cell-based; settings: K12, 24 h
Protocol: as §1

S. aureus (ATCC 6538) = assay type: cell-based; settings: ATCC 6538, 24 h

| Substance | cell adhesion and proliferation (total cells / total viable cells) (Human dermal fibroblasts [1]) | resistance against bacterial adhesion / biofilm formation (E. coli) | normalised impedance after second medium inoculation (Human dermal fibroblasts [2]) | MIC [3] [µM] | CC50 at 1 hour [4] [µM] | haemolytic activity (Human erythrocytes) | MIC (M. luteus) [µM] | MIC (B. subtilis (ATCC 6633)) [µM] | MIC (E. coli (K12)) [µM] | MIC (S. aureus (ATCC 6538)) [µM] |
| --- | --- | --- | --- | --- | --- | --- | --- | --- | --- | --- |
| KIAALKQKIAALKYEIAALE-am (KIAALKQKIAALKYEIAALE-NH2) [D2, individual linear second domain, negative non-assembling peptide control] | only negligible cellular responses |  |  |  |  |  |  |  |  |  |
| collagen | comparable values | did not resist biofilm formation | a gradually ascending phase in impedance |  |  |  |  |  |  |  |
| cyclo(AALEGGGEIAALEQEIAALEYKIAALKGGGKIAALKQKIAALKQEI) [SaNet] |  |  |  | >100 | > 600 | negligible | <50 | 50 | 100 | >100 |
| fibronectin | comparable values | did not resist biofilm formation | steady decays in resistance curves |  |  |  |  |  |  |  |
